In article PMC7822030, “Hybrid Inhibitors of DNA Gyrase A and B: Design, Synthesis and Evaluation” (Pharmaceutics, 2020):
Read-outs that look alike come from different tables or passages of the source.

How the values were obtained:
E. coli topoisomerase IV = biological target: T1, E. coli topoisomerase IV (Escherichia coli, UniProt P0AFI2+P20083); experiment: E. coli topoisomerase IV relaxation assay; format: biochemical
T1 construct: purchased Inspiralis, Norwich, UK

P. aeruginosa ATCC 27863 = experiment: MIC broth microdilution, P. aeruginosa; format: cell-based; settings: Pseudomonas aeruginosa
In short: (§1)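 MICs come from standard CLSI broth microdilution in MHBII with 5 × 10^4 cells per well, read by OD600.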

E. coli ATCC 25922 = experiment: MIC broth microdilution, E. coli ATCC 25922; format: cell-based; settings: Escherichia coli, ATCC25922, read-out: MIC E. coli ATCC #
In short: as §1

[1] = tested on: E. cloacae spp. cloacae ATCC 13047; experiment: MIC broth microdilution, E. cloacae; format: cell-based, Enterobacter cloacae; settings: Enterobacter cloacae, ATCC13047, read-out: MIC E. cloacae spp. cloacae ATCC #
[2] = tested on: E. coli MG1655 GyrA S83L, D87N ParC S80I, E84G; experiment: microbe, parasite or virus in culture; format: cell-based, Escherichia coli
[3] = tested on: E. coli MG1655 GyrB R136C; experiment: microbe, parasite or virus in culture; format: cell-based, Escherichia coli
E. coli BW25113 ΔtolC = format: cell-based, Escherichia coli
In short: (§2)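 Compounds were serially diluted in cation-adjusted MHBII, then each well received 5 × 10^4 bacteria. Plates were bagged to limit evaporation during incubation, and OD600 was then read. Measurements ran in three parallel replicates.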

E. coli BW25113 ΔmrcB = format: cell-based, Escherichia coli
In short: as §2

E. coli BW25113 ΔsurA = format: cell-based, Escherichia coli
In short: as §2

E. coli BW25113 ΔacrB = format: cell-based, Escherichia coli
In short: as §2

E. coli BW25113 ΔdapF = format: cell-based, Escherichia coli
In short: as §2

K. pneumoniae ATCC 10031 = experiment: MIC broth microdilution, K. pneumoniae; format: cell-based; settings: Klebsiella pneumoniae, ATCC10031, read-out: MIC K. pneumoniae ATCC #
In short: as §1

E. coli BW25113 WT = experiment: MIC, E. coli BW25113 wild-type; format: cell-based; settings: Escherichia coli, BW25113, read-out: Minimum Inhibitory Concentration E. coli BW# WT
In short: as §2

A. baumannii ATCC 17978 = experiment: MIC broth microdilution, A. baumannii; format: cell-based; settings: Acinetobacter baumannii, ATCC17978, read-out: MIC A. baumannii ATCC #
In short: as §1

E. coli DNA gyrase = biological target: T2, E. coli DNA gyrase (Escherichia coli, UniProt P0AES4+P0AES6); experiment: E. coli DNA gyrase supercoiling assay; format: biochemical
T2 construct: purchased Inspiralis, Norwich, UK

E. coli MG1655 WT = experiment: MIC, E. coli MG1655 wild-type with PAβN; format: cell-based, Escherichia coli
[4] = molar conversion in parentheses
[5] = in the presence of 50 µg/mL PAβN

SMILES: Cc1[nH]c(C(=O)Nc2nc3ccc(C(=O)NCCOCCN4CCN(c5cc6c(cc5F)c(=O)c(C(=O)O)cn6C5CC5)CC4)cc3s2)c(Cl)c1Cl.Cl [Compound 11a, 4-(3-Carboxy-1-cyclopropyl-6-fluoro-4-oxo-1,4-dihydroquinolin-7-yl)-1-(2-(2-(2-(3,4-dichloro-5-methyl-1H-pyrrole-2-carboxamido)benzo[d]thiazole-6-carboxamido)ethoxy)ethyl)piperazin-1-ium chloride]
- IC50 (E. coli topoisomerase IV): > 10 µM
- Inhibition of topoisomerase IV (in words) (E. coli topoisomerase IV; relaxation assay): lack of activity
- MIC (P. aeruginosa ATCC 27863; ATCC27863, 18 h, read-out: MIC P. aeruginosa ATCC #): > 64 µg/mL
- MIC (P. aeruginosa ATCC 27863; ATCC27863, read-out: MIC P. aeruginosa ATCC #, molar conversion in parentheses, read-out: MIC P. aeruginosa ATCC 27863): > 82.9 µM
- MIC (E. coli ATCC 25922; broth microdilution, 18 h): 32 µg/mL
- MIC (E. coli ATCC 25922; [4]): 41.5 µM
- MIC ([1]; broth microdilution, 18 h): 64 µg/mL
- MIC [1, 4]: 82.9 µM
- MIC ([2]; Escherichia coli, MG1655, read-out: Minimum Inhibitory Concentration E. coli MG# GyrA S83L, D87N ParC S80I, E84G): 10.4 µM
- Minimum Inhibitory Concentration E. coli MG1655 GyrA S83L, D87N ParC S80I, E84G [2, 5]: 8 µg/mL
- MIC ([3]; Escherichia coli, MG1655, read-out: Minimum Inhibitory Concentration E. coli MG# GyrB R#C): 0.65 µM
- Minimum Inhibitory Concentration E. coli MG1655 GyrB R136C [3, 5]: 0.5 µg/mL
- Minimum Inhibitory Concentration E. coli BW25113 ΔtolC (E. coli BW25113 ΔtolC; efflux pump mutant): 0.5 µg/mL
- Minimum Inhibitory Concentration E. coli BW25113 ΔtolC (E. coli BW25113 ΔtolC; [4]): (0.65 µM)
- Minimum Inhibitory Concentration E. coli BW25113 ΔmrcB (E. coli BW25113 ΔmrcB; impaired cell-wall mutant): 32 µg/mL
- Minimum Inhibitory Concentration E. coli BW25113 ΔmrcB (E. coli BW25113 ΔmrcB; [4]): (41.5 µM)
- Minimum Inhibitory Concentration E. coli BW25113 ΔsurA (E. coli BW25113 ΔsurA; impaired cell-wall mutant): 16 µg/mL
- Minimum Inhibitory Concentration E. coli BW25113 ΔsurA (E. coli BW25113 ΔsurA; [4]): (20.7 µM)
- Minimum Inhibitory Concentration E. coli BW25113 ΔacrB (E. coli BW25113 ΔacrB; efflux pump mutant): 32 µg/mL
- Minimum Inhibitory Concentration E. coli BW25113 ΔacrB (E. coli BW25113 ΔacrB; [4]): (41.5 µM)
- Minimum Inhibitory Concentration E. coli BW25113 ΔdapF (E. coli BW25113 ΔdapF; impaired cell-wall mutant): 32 µg/mL
- Minimum Inhibitory Concentration E. coli BW25113 ΔdapF (E. coli BW25113 ΔdapF; [4]): (41.5 µM)
- MIC (K. pneumoniae ATCC 10031; broth microdilution, 18 h): 4 µg/mL
- MIC (K. pneumoniae ATCC 10031; [4]): 5.18 µM
- MIC (E. coli BW25113 WT; [4]): 41.5 µM
- MIC (E. coli BW25113 WT; wild-type): 32 µg/mL
- MIC (A. baumannii ATCC 17978; broth microdilution, 18 h): > 64 µg/mL
- MIC (A. baumannii ATCC 17978; [4]): > 82.9 µM
- melting point: 187 to 190 °C
- IC50 (E. coli DNA gyrase): 0.13 ± 0.03 µM
- MIC (E. coli MG1655 WT; Escherichia coli, MG1655, read-out: Minimum Inhibitory Concentration E. coli MG# WT, 50 µg/mL PAβN, molar conversion in parentheses): 0.65 µM
- Minimum Inhibitory Concentration E. coli MG1655 WT (E. coli MG1655 WT; [5]): 0.5 µg/mL
